Experimental data reported in patent US11981658B2, “Substituted aminopyridine compounds as EGFR inhibitors” (YUHAN CORPORATION, priority 2021, dated 2024).
Where two headings read alike, the source gives them in different places.

Key:
EGFR L858R/T790M/C797S = EGFR L858R/T790M/C797S (Homo sapiens, UniProt P00533, C797S/L858R/T790M); assay: Biochemical EGFR kinase inhibition assay (Lance Ultra TR-FRET), triple mutant L858R/T790M/C797S
Procedure, shortened: (§1)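 In this biochemical assay, phosphorylation after a one-hour room-temperature reaction was detected with europium-labelled anti-phosphopeptide antibody at 2 nM final concentration.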

EGFR wildtype (WT) = EGFR wildtype (WT) (Homo sapiens, UniProt P00533); assay: Biochemical EGFR kinase inhibition assay (Lance Ultra TR-FRET), wildtype
Sequence of EGFR wildtype (WT) (P00533 25-1210): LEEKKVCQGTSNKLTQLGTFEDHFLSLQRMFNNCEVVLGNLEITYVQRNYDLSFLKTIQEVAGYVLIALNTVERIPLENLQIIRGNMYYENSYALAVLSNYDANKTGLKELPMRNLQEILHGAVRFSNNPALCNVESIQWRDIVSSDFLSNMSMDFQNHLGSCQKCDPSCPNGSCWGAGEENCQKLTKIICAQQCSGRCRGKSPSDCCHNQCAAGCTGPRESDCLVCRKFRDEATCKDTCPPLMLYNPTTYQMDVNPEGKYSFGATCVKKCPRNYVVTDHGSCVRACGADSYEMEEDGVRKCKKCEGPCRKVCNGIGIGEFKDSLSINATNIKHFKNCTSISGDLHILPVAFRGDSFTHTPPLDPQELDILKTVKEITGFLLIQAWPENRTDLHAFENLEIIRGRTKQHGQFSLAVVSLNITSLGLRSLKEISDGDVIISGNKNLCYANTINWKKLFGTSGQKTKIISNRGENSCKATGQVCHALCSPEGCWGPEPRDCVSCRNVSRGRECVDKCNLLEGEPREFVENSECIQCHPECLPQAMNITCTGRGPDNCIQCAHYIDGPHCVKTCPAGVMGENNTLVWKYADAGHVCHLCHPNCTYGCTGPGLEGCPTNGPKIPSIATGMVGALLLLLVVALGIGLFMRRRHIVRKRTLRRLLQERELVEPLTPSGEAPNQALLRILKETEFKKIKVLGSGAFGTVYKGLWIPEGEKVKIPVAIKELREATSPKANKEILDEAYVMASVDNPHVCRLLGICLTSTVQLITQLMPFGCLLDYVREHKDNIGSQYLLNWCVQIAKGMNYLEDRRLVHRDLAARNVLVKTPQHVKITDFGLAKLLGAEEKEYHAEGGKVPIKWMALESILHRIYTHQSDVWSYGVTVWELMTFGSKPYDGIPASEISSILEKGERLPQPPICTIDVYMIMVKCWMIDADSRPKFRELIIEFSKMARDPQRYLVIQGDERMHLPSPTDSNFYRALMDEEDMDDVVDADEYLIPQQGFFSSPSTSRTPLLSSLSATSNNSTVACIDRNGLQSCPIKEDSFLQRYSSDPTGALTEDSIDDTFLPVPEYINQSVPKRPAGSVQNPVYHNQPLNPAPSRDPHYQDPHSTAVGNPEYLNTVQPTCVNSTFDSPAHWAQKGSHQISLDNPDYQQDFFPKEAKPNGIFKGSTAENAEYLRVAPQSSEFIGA
Procedure, shortened: as §1

EGFR Del19/C797S = EGFR Del19/C797S (Homo sapiens, UniProt P00533, C797S/DEL746-750); assay: Biochemical EGFR kinase inhibition assay (Lance Ultra TR-FRET), double mutant del19/C797S
Sequence of EGFR Del19/C797S (P00533 with tags, fused parts or gaps DEL746-750/C797S): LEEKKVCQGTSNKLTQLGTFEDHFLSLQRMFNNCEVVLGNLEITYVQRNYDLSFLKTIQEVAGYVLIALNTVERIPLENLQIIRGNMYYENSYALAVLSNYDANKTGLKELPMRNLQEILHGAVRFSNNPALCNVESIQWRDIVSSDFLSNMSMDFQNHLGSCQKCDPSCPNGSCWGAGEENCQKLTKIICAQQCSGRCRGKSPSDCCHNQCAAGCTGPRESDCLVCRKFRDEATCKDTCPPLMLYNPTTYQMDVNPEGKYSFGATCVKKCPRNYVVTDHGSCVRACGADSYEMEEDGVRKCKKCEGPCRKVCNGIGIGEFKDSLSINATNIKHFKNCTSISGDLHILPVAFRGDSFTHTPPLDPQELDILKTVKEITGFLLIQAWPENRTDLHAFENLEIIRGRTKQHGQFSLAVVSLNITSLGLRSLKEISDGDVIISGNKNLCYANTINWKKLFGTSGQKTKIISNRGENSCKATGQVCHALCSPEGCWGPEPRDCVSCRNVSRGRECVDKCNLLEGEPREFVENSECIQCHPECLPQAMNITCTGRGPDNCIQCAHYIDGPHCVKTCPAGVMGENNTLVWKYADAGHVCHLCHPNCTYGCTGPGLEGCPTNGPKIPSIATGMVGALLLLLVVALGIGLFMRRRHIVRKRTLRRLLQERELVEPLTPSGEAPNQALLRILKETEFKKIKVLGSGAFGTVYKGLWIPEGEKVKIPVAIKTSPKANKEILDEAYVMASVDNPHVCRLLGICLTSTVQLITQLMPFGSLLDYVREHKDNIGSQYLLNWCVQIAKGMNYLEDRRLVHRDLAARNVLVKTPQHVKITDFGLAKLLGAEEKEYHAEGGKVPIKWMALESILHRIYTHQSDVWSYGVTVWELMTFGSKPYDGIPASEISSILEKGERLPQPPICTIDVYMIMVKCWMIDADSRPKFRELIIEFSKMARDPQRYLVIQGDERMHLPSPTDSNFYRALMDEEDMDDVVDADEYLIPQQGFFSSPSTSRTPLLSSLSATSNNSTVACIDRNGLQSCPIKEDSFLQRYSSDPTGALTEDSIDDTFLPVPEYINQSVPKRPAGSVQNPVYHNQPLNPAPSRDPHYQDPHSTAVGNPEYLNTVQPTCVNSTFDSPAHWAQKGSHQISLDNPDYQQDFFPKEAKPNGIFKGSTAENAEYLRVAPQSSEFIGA
Procedure, shortened: as §1

EGFR L858R/C797S = EGFR L858R/C797S (Homo sapiens, UniProt P00533, C797S/L858R); assay: Biochemical EGFR kinase inhibition assay (Lance Ultra TR-FRET), double mutant L858R/C797S
Procedure, shortened: as §1

EGFR Del19/T790M/C797S = EGFR Del19/T790M/C797S (Homo sapiens, UniProt P00533, C797S/DEL746-750/T790M); assay: Biochemical EGFR kinase inhibition assay (Lance Ultra TR-FRET), triple mutant del19/T790M/C797S
Sequence of EGFR Del19/T790M/C797S (P00533 with tags, fused parts or gaps DEL746-750/T790M/C797S): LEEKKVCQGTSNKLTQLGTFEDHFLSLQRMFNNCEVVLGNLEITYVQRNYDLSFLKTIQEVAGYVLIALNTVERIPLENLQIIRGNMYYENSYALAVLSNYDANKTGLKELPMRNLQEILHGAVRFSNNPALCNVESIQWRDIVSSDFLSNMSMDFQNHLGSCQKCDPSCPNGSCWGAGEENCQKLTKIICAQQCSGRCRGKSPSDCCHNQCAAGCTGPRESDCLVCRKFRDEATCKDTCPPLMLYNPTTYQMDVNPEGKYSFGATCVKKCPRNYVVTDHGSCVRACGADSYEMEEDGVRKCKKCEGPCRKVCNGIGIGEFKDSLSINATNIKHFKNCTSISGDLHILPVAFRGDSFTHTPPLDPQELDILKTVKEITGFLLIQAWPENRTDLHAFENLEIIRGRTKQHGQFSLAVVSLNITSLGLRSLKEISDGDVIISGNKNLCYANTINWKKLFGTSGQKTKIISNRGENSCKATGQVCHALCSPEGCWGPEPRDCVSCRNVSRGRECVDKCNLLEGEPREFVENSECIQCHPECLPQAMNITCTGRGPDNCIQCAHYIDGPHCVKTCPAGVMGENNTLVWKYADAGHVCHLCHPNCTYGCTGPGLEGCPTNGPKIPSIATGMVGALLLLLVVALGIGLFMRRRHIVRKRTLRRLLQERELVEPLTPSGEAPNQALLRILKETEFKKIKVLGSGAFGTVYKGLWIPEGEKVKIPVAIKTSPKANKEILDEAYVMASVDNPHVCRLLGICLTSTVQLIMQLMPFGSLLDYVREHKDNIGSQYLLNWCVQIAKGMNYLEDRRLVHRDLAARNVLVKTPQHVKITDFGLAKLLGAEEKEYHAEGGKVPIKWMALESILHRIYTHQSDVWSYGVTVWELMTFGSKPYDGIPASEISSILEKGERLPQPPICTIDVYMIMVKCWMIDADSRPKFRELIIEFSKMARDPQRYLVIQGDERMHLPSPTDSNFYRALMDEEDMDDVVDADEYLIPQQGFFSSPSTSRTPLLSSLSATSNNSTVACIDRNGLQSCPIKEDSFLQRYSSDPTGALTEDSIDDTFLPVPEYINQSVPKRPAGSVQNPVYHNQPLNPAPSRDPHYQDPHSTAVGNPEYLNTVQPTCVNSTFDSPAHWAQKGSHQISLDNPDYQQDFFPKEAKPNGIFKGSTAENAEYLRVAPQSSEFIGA
Procedure, shortened: as §1

[1] = IC50 L858R/T790M/C797S (nM), 100 μM ATP
[2] = Km ATP, read-out: IC50 L858R/T790M/C797S (nM) Km ATP
[3] = Km ATP, read-out: IC50 WT (nM) Km ATP
[4] = IC50 Del19/C797S (nM), 100 μM ATP
[5] = Km ATP, read-out: IC50 Del19/C797S (nM) Km ATP
[6] = IC50 L858R/C797S (nM), 100 μM ATP
[7] = Km ATP, read-out: IC50 L858R/C797S (nM) Km ATP
[8] = IC50 Del19/T790M/C797S (nM), 100 μM ATP
[9] = Km ATP, read-out: IC50 Del19/T790M/C797S (nM) Km ATP
[10] = Km ATP, read-out: IC50 L858R/T790M/C797S (nM), Km ATP
[11] = Km ATP, read-out: IC50 WT (nM), Km ATP
[12] = Km ATP, read-out: IC50 Del19/C797S (nM), Km ATP
[13] = Km ATP, read-out: IC50 L858R/C797S (nM), Km ATP
[14] = Km ATP, read-out: IC50 Del19/T790M/C797S (nM), Km ATP
[15] = ATP at Km, read-out: IC50 L858R/T790M/C797S (nM), Km ATP
[16] = ATP at Km, read-out: IC50 WT (nM), Km ATP
[17] = ATP at Km, read-out: IC50 Del19/C797S (nM), Km ATP
[18] = ATP at Km, read-out: IC50 L858R/C797S (nM), Km ATP
[19] = ATP at Km, read-out: IC50 Del19/T790M/C797S (nM), Km ATP

Sequence of EGFR L858R/T790M/C797S (P00533 25-1210 T790M/C797S/L858R): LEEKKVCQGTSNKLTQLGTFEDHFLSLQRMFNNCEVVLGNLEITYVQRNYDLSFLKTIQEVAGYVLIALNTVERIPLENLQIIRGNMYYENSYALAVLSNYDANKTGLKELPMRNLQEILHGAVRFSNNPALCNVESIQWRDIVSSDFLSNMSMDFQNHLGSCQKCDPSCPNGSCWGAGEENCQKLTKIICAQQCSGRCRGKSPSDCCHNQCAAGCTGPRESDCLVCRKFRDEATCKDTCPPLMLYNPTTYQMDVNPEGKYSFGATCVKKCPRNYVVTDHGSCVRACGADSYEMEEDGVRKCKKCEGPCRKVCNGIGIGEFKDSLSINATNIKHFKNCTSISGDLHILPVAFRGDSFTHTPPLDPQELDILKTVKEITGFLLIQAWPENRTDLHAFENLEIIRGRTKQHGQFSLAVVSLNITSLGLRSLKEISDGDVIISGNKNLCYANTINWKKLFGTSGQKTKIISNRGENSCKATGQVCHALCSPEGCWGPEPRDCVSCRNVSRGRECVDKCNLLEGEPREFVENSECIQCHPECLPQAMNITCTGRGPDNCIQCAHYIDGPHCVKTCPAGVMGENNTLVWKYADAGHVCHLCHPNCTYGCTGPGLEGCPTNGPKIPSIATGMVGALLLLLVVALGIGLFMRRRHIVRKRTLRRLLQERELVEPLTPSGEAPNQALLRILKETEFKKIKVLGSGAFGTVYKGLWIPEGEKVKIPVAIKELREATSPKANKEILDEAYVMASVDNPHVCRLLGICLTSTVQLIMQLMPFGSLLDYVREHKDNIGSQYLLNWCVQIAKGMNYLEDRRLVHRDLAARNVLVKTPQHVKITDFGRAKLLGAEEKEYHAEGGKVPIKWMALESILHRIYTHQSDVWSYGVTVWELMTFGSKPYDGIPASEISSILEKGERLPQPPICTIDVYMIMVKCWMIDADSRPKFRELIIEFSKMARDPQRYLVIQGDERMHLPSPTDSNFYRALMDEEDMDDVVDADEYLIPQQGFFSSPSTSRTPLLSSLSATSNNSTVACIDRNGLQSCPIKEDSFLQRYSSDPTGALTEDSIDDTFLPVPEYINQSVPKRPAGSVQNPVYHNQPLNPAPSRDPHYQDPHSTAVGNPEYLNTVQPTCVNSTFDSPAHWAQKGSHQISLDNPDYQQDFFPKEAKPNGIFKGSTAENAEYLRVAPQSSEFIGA

Row | Structure (SMILES) | IC50 (EGFR L858R/T790M/C797S; [1]) | IC50 (EGFR L858R/T790M/C797S; [2]) | IC50 (EGFR wildtype (WT); IC50 WT (nM), 100 μM ATP) | IC50 (EGFR wildtype (WT); [3]) | IC50 (EGFR Del19/C797S; [4]) | IC50 (EGFR Del19/C797S; [5]) | IC50 (EGFR L858R/C797S; [6]) | IC50 (EGFR L858R/C797S; [7]) | IC50 (EGFR Del19/T790M/C797S; [8]) | IC50 (EGFR Del19/T790M/C797S; [9]) | IC50 (EGFR L858R/T790M/C797S; [10]) | IC50 (EGFR wildtype (WT); [11]) | IC50 (EGFR Del19/C797S; [12]) | IC50 (EGFR L858R/C797S; [13]) | IC50 (EGFR Del19/T790M/C797S; [14]) | IC50 (EGFR L858R/T790M/C797S; [15]) | IC50 (EGFR wildtype (WT); [16]) | IC50 (EGFR Del19/C797S; [17]) | IC50 (EGFR L858R/C797S; [18]) | IC50 (EGFR Del19/T790M/C797S; [19])
1 | CN1CCC(n2cc(C#Cc3cnc(Nc4ccnc(-c5cnn(S(=O)(=O)C6CC6)c5)n4)cc3N3CCC(C)(CO)CC3)cn2)CC1 [Example 147, (1-(2-((2-(1-(Cyclopropylsulfonyl)-1H-pyrazol-4-yl)pyrimidin-4-yl)amino)-5-((1-(1-methylpiperidin-4-yl)-1H-pyrazol-4-yl)ethynyl)pyridin-4-yl)-4-methylpiperidin-4-yl)methanol] | 0.2 nM | 0.1 nM | 43.3 nM | 0.4 nM | 0.4 nM | 0.2 nM | 0.7 nM | 0.2 nM | 0.4 nM | 0.2 nM |  |  |  |  |  |  |  |  |  | 
2 | Cn1cc(C#Cc2cnc(Nc3ccnc(-c4cnn(S(=O)(=O)C5CC5)c4)n3)cc2N2CCCC(O)CC2)cn1 (centres unmarked) [Example 77, 1-(2-((2-(1-(Cyclopropylsulfonyl)-1H-pyrazol-4-yl)pyrimidin-4-yl)amino)-5-((1-methyl-1H-pyrazol-4-yl)ethynyl)pyridin-4-yl)azepan-4-ol] | 3.6 nM | 0.5 nM | > 10000 nM | 97 nM | 6.3 nM | 5 nM | 357 nM | 14.1 nM | 0.6 nM | 0.9 nM |  |  |  |  |  |  |  |  |  | 
3 | O=S(=O)(C1CC1)n1cc(-c2nccc(Nc3cc(NC4CCC(CO)CC4)c(C#CC4CCCO4)cn3)n2)cn1 (centres unmarked) [Example 374, ((1s,4s)-4-((2-((2-(1-(Cyclopropylsulfonyl)-1H-pyrazol-4-yl)pyrimidin-4-yl)amino)-5-((tetrahydrofuran-2-yl)ethynyl)pyridin-4-yl)amino)cyclohexyl)methanol] | 0.6 nM |  | 9810 nM |  | 2.4 nM |  | 75.1 nM |  | 0.3 nM |  | 0.3 nM | 10.4 nM | 1.3 nM | 4.1 nM | 0.3 nM |  |  |  |  | 
4 | CC(C)(O)[C@H]1CC[C@@H](Nc2cc(Nc3ccnc(-c4cnn(S(=O)(=O)C5CC5)c4)n3)ncc2C#Cc2ccc(CN3CCOCC3)cc2)CC1 [Example 162, 2-((1s,4s)-4-((2-((2-(1-(Cyclopropylsulfonyl)-1H-pyrazol-4-yl)pyrimidin-4-yl)amino)-5-((4-(morpholinomethyl)phenyl)ethynyl)pyridin-4-yl)amino)cyclohexyl)propan-2-ol] | 26.3 nM |  | > 10000 nM |  | 58.4 nM |  | 619 nM |  | 22.9 nM |  |  |  |  |  |  | 12.2 nM | 540 nM | 44.8 nM | 39.9 nM | 27.6 nM
5 | Cn1cc(C#Cc2cnc(Nc3ccnc(-c4cnn(S(=O)(=O)C5CC5)c4)n3)cc2N[C@H]2CC[C@@H](O)CC2)c(C(F)(F)F)n1 [Example 92, (1s,4s)-4-((2-((2-(1-(Cyclopropylsulfonyl)-1H-pyrazol-4-yl)pyrimidin-4-yl)amino)-5-((1-methyl-3-(trifluoromethyl)-1H-pyrazol-4-yl)ethynyl)pyridin-4-yl)amino)cyclohexan-1-ol] | 11.3 nM |  | > 10000 nM |  | 67.5 nM |  | 80.7 nM |  | 5.5 nM |  |  |  |  |  |  |  |  |  |  | 
6 | CC1(CO)CCN(c2cc(Nc3ccnc(-c4cnn(S(=O)(=O)C5CC5)c4)n3)ncc2C#CC2(O)CCCC2)CC1 [Example 177, 1-((6-((2-(1-(Cyclopropylsulfonyl)-1H-pyrazol-4-yl)pyrimidin-4-yl)amino)-4-(4-(hydroxymethyl)-4-methylpiperidin-1-yl)pyridin-3-yl)ethynyl)cyclopentan-1-ol] | 0.7 nM |  | 4870 nM |  | 2.5 nM |  | 66.5 nM |  | 0.5 nM |  |  |  |  |  |  | 0.4 nM | 17.7 nM | 2 nM | 7.5 nM | 0.6 nM
7 | O=S(=O)(C1CC1)n1cc(-c2nccc(Nc3cc(NC4CCC(CO)CC4)c(C#Cc4cnn(C5CC5(F)F)c4)cn3)n2)cn1 (centres unmarked) [Example 327, ((1s,4s)-4-((2-((2-(1-(Cyclopropylsulfonyl)-1H-pyrazol-4-yl)pyrimidin-4-yl)amino)-5-((1-(2,2-difluorocyclopropyl)-1H-pyrazol-4-yl)ethynyl)pyridin-4-yl)amino)cyclohexyl)methanol] | 1.5 nM |  | > 10000 nM |  | 4.8 nM |  | 39.3 nM |  | 2.5 nM |  |  |  |  |  |  | 0.8 nM | 11.9 nM | 1.6 nM | 2.1 nM | 2.2 nM
8 | CN(C)CCCn1cc(C#Cc2cnc(Nc3ccnc(-c4cnn(S(=O)(=O)C5CC5)c4)n3)cc2N2CCC3(CC2)CC(C)(O)C3)cn1 [Example 152, 7-(2-((2-(1-(Cyclopropylsulfonyl)-1H-pyrazol-4-yl)pyrimidin-4-yl)amino)-5-((1-(3-(dimethylamino)propyl)-1H-pyrazol-4-yl)ethynyl)pyridin-4-yl)-2-methyl-7-azaspiro[3.5]nonan-2-ol] | 0.2 nM |  | 196 nM |  | 0.4 nM |  | 0.8 nM |  | 0.3 nM |  |  |  |  |  |  | 0.1 nM | 0.6 nM | 0.1 nM | 0.2 nM | 0.2 nM
9 | Cn1cc(C#Cc2cnc(Nc3ccnc(-c4cnn(S(=O)(=O)C5CC5)c4)n3)cc2N2CCC(NCCF)CC2)cn1 [Example 129, 2-(1-(Cyclopropylsulfonyl)-1H-pyrazol-4-yl)-N-(4-(4-((2-fluoroethyl)amino)piperidin-1-yl)-5-((1-methyl-1H-pyrazol-4-yl)ethynyl)pyridin-2-yl)pyrimidin-4-amine] | 0.8 nM |  | > 10000 nM |  | 4.4 nM |  | 23.8 nM |  | 0.5 nM |  |  |  |  |  |  |  |  |  |  | 
10 | Cn1cnc(C#Cc2cnc(Nc3ccnc(-c4cnn(S(=O)(=O)C5CC5)c4)n3)cc2N2CCC(O)CC2)c1 [Example 213, 1-(2-((2-(1-(Cyclopropylsulfonyl)-1H-pyrazol-4-yl)pyrimidin-4-yl)amino)-5-((1-methyl-1H-imidazol-4-yl)ethynyl)pyridin-4-yl)piperidin-4-ol] | 1.4 nM |  | > 10000 nM |  | 8.8 nM |  | 37.5 nM |  | 0.7 nM |  |  |  |  |  |  |  |  |  |  | 
11 | CC1(CO)CCN(c2cc(Nc3ccnc(-c4cnn(S(=O)(=O)C5CC5)c4)n3)ncc2C#CC2(O)CCC2)CC1 [Example 351, 1-((6-((2-(1-(Cyclopropylsulfonyl)-1H-pyrazol-4-yl)pyrimidin-4-yl)amino)-4-(4-(hydroxymethyl)-4-methylpiperidin-1-yl)pyridin-3-yl)ethynyl)cyclobutan-1-ol] | 1.6 nM |  | 7620 nM |  | 3.7 nM |  | 77.8 nM |  | 1.2 nM |  | 0.8 nM | 44.2 nM | 4.9 nM | 12.8 nM | 1.6 nM |  |  |  |  | 
